Laboratory results as given in patent US20080032953A1, “Method For Inhibiting Prebiotic Effect Of Food Proteins” (Royal Canin SA,, priority 2004, published 2008).

Columns and labels:
aerobic microflora [1] = assay: Growth of cat oral bacterial microflora in artificial saliva with protein, with or without phosphate: aerobic count; assay type: cell-based
Procedure: (§1) For all the experiments, the bacterial microflora of the oral cavity was removed, kept in a conservation medium, and then cultured in artificial saliva according to the following protocol:
(§2) Two male cats of “European” race, weighing approximately 5.50 kg, were anesthetized with 0.3 ml of a solution of medetomidine at 0.085 g/100 ml (Domitor, ND) and 0.26 ml of a solution of ketamine at […] (Imalgene 1000, ND).
(§3) In each animal thus immobilized, the saliva was sterilely suctioned with a pipette and the base of the teeth, the gums and the gum pockets were scraped with the back of a sterile scalpel.
(§4) All the samples were transferred and well-diluted in 100 ml of a sterile conservation medium (thiocolate resazurin medium from Biokar supplemented with 25% of glycerol). The conservation medium containing the samples was transferred into tubes with microbeads (Cryobilles, ND from AES). These tubes were then incubated for 6 hours in an incubator at 37° C., in a jar under CO2, before being frozen for subsequent use.
(§5) When subsequently used, each tube is thawed at ambient temperature and then incubated for 12 hours at 37° C., in a jar under CO2. The aerobic and anaerobic bacteria are counted according to the methods described hereinafter. The content of each tube is subsequently diluted with the sterile conservation medium so as to have an inoculum of 5000 (3.70 log10) revivable microorganisms in 0.2 ml.
(§6) The aerobic microflora is cultured and then counted on a trypticase soy medium (Biokar) incubated at 37° C. for 48 hours.
(§7) The basic artificial saliva is prepared according to table 31 on page 244 of the manual Biological Handbooks—Metabolism, compiled and edited by Philip L. Altman and Dorothy S. Dittmer, published by Federation of American Societies for Experimental Biology, 1968.
(§8) This basic saliva is supplemented with L-cysteine at a rate of 0.5 g/liter in order to lower its redox potential so as to be able to grow therein both the aerobic bacterial microflora and the anaerobic bacterial microflora. The whole will subsequently be referred to as “artificial saliva”.
(§9) The artificial saliva is dispensed into test tubes at a rate of 20 ml per tube. Each tube is supplemented or not supplemented with the protein, in the presence or absence of the phosphate to be tested. Each treatment is composed of two tubes.
(§10) The whole is autoclaved at 110° C. for 15 minutes.
(§11) Each tube is subsequently inoculated with 0.2 ml of inoculum described above. The whole is incubated in an incubator at 37° C., with shaking.
(§12) After 24, 48 or 72 hours of incubation, the aerobic flora and the anaerobic flora are counted according to the methods described above.
(§13) The result of each treatment is the mean of the counts of two test tubes, expressed as log10 of C.F.U. (Colony Forming Units) per ml of artificial saliva.

anaerobic microflora [2] = assay: Growth of canine oral flora in artificial saliva with soya hydrolysate, with or without tripolyphosphate: anaerobic count; assay type: cell-based, dog; conditions: for Anaerobic microflora CFU/ml, 24 hours / Anaerobic microflora CFU/ml, 48 hours: Experiment 6, canine flora
Procedure: as §1, §5
(§14) The anaerobic microflora is cultured and then counted on a Schaedler medium (Biokar) supplemented with 5% of sterile defibrinated sheep blood, incubated at 37° C., in a jar under CO2, for 48 hours.
as §7, §8, §9, §10, §11, §12, §13
(§15) In this assay, the inhibitory effect of sodium tripolyphosphate incorporated at 0, 0.5, 1, 1.5 and 2%, on the prebiotic effect of a dehydrated soya hydrolysate (Nurish 1500 IP, ND from Solea Company, having a titer of 83% of total nitrogenous matter) incorporated into the artificial saliva at 0.5 and at 1%, was tested.
(§16) In this assay, oral microflora taken from a dog were used.

anaerobic microflora [3] = assay: Growth of cat oral bacterial microflora in artificial saliva with protein, with or without phosphate: anaerobic count; assay type: cell-based
Procedure: as §1, §2, §3, §4, §5, §14, §7, §8, §9, §10, §11, §12, §13

aerobic microflora [4] = assay: Growth of canine oral flora in artificial saliva with soya hydrolysate, with or without tripolyphosphate: aerobic count; assay type: cell-based, dog; conditions: for Aerobic microflora CFU/ml, 24 hours / Aerobic microflora CFU/ml, 48 hours: Experiment 6, canine flora
Procedure: as §1, §5, §6, §7, §8, §9, §10, §11, §12, §13, §15, §16

[5] = Experiment 4, MP9007 1%, tripolyphosphate 0.5%
[6] = Experiment 4, MP9007 1%, tripolyphosphate 1%
[7] = Experiment 4, MP9007 1%, tripolyphosphate 1.5%
[8] = Experiment 4, MP9007 1%, tripolyphosphate 2%
[9] = Experiment 4, sodium tripolyphosphate 0.5-2%, MP9007 1%
[10] = Experiment 5, regardless of the amount incorporated (0.5-2%), soya hydrolysate 1%
[11] = Experiment 5, soya hydrolysate 1%, tripolyphosphate 0.5%
[12] = Experiment 5, soya hydrolysate 1%, tripolyphosphate 1%
[13] = Experiment 5, soya hydrolysate 1%, tripolyphosphate 1.5%
[14] = Experiment 5, soya hydrolysate 1%, tripolyphosphate 2%
[15] = tripolyphosphate 0.5%, soya hydrolysate 0.5%
[16] = tripolyphosphate 0.5%, soya hydrolysate 1%
[17] = tripolyphosphate 1%, soya hydrolysate 0.5%
[18] = tripolyphosphate 1%, soya hydrolysate 1%
[19] = tripolyphosphate 1.5%, soya hydrolysate 0.5%
[20] = tripolyphosphate 1.5%, soya hydrolysate 1%
[21] = tripolyphosphate 2%, soya hydrolysate 0.5%
[22] = tripolyphosphate 2%, soya hydrolysate 1%
[23] = Experiment 6, soya hydrolysate 0.5 and 1%
[24] = Experiment 6, tripolyphosphate incorporation rates greater than or equal to 1%

O=P(O)(O)OP(=O)(O)OP(=O)(O)O [sodium tripolyphosphate] was tested, and the “Aerobic microflora CFU/ml, 24 hours” value (aerobic microflora [1]; [5]) was 5.50 log10 CFU/ml, the “Aerobic microflora CFU/ml, 48 hours” value (aerobic microflora [1]; [5]) was 6.90 log10 CFU/ml and the “Aerobic microflora CFU/ml, 24 hours” value (aerobic microflora [1]; [6]) was 4.81 log10 CFU/ml. The “Aerobic microflora CFU/ml, 48 hours” value (aerobic microflora [1]; [6]) was 6.49 log10 CFU/ml, the “Aerobic microflora CFU/ml, 24 hours” value (aerobic microflora [1]; [7]) was 4.84 log10 CFU/ml and the “Aerobic microflora CFU/ml, 48 hours” value (aerobic microflora [1]; [7]) was 6.83 log10 CFU/ml. The “Aerobic microflora CFU/ml, 24 hours” value (aerobic microflora [1]; [8]) was <4.00 log10 CFU/ml, the “Aerobic microflora CFU/ml, 48 hours” value (aerobic microflora [1]; [8]) was <4.00 log10 CFU/ml and the “Inhibition of the prebiotic effect of the MP9007 protein, aerobic microflora (in words)” value (aerobic microflora [1]; [9]) was “significantly inhibits”. The “Inhibition of the prebiotic effect of soya hydrolysate, aerobic microflora (in words)” value (aerobic microflora [1]; [10]) was “virtually inhibits the entire prebiotic effect”, the “Aerobic microflora CFU/ml, 24 hours” value (aerobic microflora [1]; [11]) was <4.00 log10 CFU/ml and the “Aerobic microflora CFU/ml, 48 hours” value (aerobic microflora [1]; [11]) was <4.00 log10 CFU/ml. The “Aerobic microflora CFU/ml, 24 hours” value (aerobic microflora [1]; [12]) was <4.00 log10 CFU/ml, the “Aerobic microflora CFU/ml, 48 hours” value (aerobic microflora [1]; [12]) was <4.00 log10 CFU/ml and the “Aerobic microflora CFU/ml, 24 hours” value (aerobic microflora [1]; [13]) was <4.00 log10 CFU/ml. The “Aerobic microflora CFU/ml, 48 hours” value (aerobic microflora [1]; [13]) was <4.00 log10 CFU/ml, the “Aerobic microflora CFU/ml, 24 hours” value (aerobic microflora [1]; [14]) was <4.00 log10 CFU/ml and the “Aerobic microflora CFU/ml, 48 hours” value (aerobic microflora [1]; [14]) was <4.00 log10 CFU/ml. For the same molecule, the “Anaerobic microflora CFU/ml, 24 hours” value (anaerobic microflora [2]; [15]) was 1.92 log10 CFU/ml, the “Anaerobic microflora CFU/ml, 48 hours” value (anaerobic microflora [2]; [15]) was 5.80 log10 CFU/ml and the “Anaerobic microflora CFU/ml, 24 hours” value (anaerobic microflora [2]; [16]) was 6.30 log10 CFU/ml. For the same molecule, the “Anaerobic microflora CFU/ml, 48 hours” value (anaerobic microflora [2]; [16]) was 6.24 log10 CFU/ml, the “Anaerobic microflora CFU/ml, 24 hours” value (anaerobic microflora [2]; [17]) was <3 log10 CFU/ml and the “Anaerobic microflora CFU/ml, 48 hours” value (anaerobic microflora [2]; [17]) was <3 log10 CFU/ml. For the same molecule, the “Anaerobic microflora CFU/ml, 24 hours” value (anaerobic microflora [2]; [18]) was <3 log10 CFU/ml, the “Anaerobic microflora CFU/ml, 48 hours” value (anaerobic microflora [2]; [18]) was 3.30 log10 CFU/ml and the “Anaerobic microflora CFU/ml, 24 hours” value (anaerobic microflora [2]; [19]) was <3 log10 CFU/ml. The “Anaerobic microflora CFU/ml, 48 hours” value (anaerobic microflora [2]; [19]) was <3 log10 CFU/ml, the “Anaerobic microflora CFU/ml, 24 hours” value (anaerobic microflora [2]; [20]) was <3 log10 CFU/ml and the “Anaerobic microflora CFU/ml, 48 hours” value (anaerobic microflora [2]; [20]) was <3 log10 CFU/ml. The “Anaerobic microflora CFU/ml, 24 hours” value (anaerobic microflora [2]; [21]) was <3 log10 CFU/ml, the “Anaerobic microflora CFU/ml, 48 hours” value (anaerobic microflora [2]; [21]) was <3 log10 CFU/ml and the “Anaerobic microflora CFU/ml, 24 hours” value (anaerobic microflora [2]; [22]) was <3 log10 CFU/ml. The “Anaerobic microflora CFU/ml, 48 hours” value (anaerobic microflora [2]; [22]) was <3 log10 CFU/ml, the “Inhibition of the prebiotic effect of soya hydrolysate, canine anaerobic oral microflora (in words)” value (anaerobic microflora [2]; [23]) was “inhibits the prebiotic effect” and the “Inhibitory effect, canine anaerobic oral microflora (in words)” value (anaerobic microflora [2]; [24]) was “particularly substantial”. For the same molecule, the “Anaerobic microflora CFU/ml, 24 hours” value (anaerobic microflora [3]; [5]) was 5.41 log10 CFU/ml, the “Anaerobic microflora CFU/ml, 48 hours” value (anaerobic microflora [3]; [5]) was 7.04 log10 CFU/ml and the “Anaerobic microflora CFU/ml, 24 hours” value (anaerobic microflora [3]; [6]) was <4.00 log10 CFU/ml. The “Anaerobic microflora CFU/ml, 48 hours” value (anaerobic microflora [3]; [6]) was 6.36 log10 CFU/ml, the “Anaerobic microflora CFU/ml, 24 hours” value (anaerobic microflora [3]; [7]) was 4.98 log10 CFU/ml and the “Anaerobic microflora CFU/ml, 48 hours” value (anaerobic microflora [3]; [7]) was 6.82 log10 CFU/ml. The “Anaerobic microflora CFU/ml, 24 hours” value (anaerobic microflora [3]; [8]) was <4.00 log10 CFU/ml, the “Anaerobic microflora CFU/ml, 48 hours” value (anaerobic microflora [3]; [8]) was <4.00 log10 CFU/ml and the “Inhibition of the prebiotic effect of the MP9007 protein, anaerobic microflora (in words)” value (anaerobic microflora [3]; [9]) was “significantly inhibits”. The “Inhibition of the prebiotic effect of soya hydrolysate, anaerobic microflora (in words)” value (anaerobic microflora [3]; [10]) was “virtually inhibits the entire prebiotic effect”, the “Anaerobic microflora CFU/ml, 24 hours” value (anaerobic microflora [3]; [11]) was <4.00 log10 CFU/ml and the “Anaerobic microflora CFU/ml, 48 hours” value (anaerobic microflora [3]; [11]) was <4.00 log10 CFU/ml. The “Anaerobic microflora CFU/ml, 24 hours” value (anaerobic microflora [3]; [12]) was <4.00 log10 CFU/ml, the “Anaerobic microflora CFU/ml, 48 hours” value (anaerobic microflora [3]; [12]) was <4.00 log10 CFU/ml and the “Anaerobic microflora CFU/ml, 24 hours” value (anaerobic microflora [3]; [13]) was <4.00 log10 CFU/ml. For the same molecule, the “Anaerobic microflora CFU/ml, 48 hours” value (anaerobic microflora [3]; [13]) was <4.00 log10 CFU/ml, the “Anaerobic microflora CFU/ml, 24 hours” value (anaerobic microflora [3]; [14]) was <4.00 log10 CFU/ml and the “Anaerobic microflora CFU/ml, 48 hours” value (anaerobic microflora [3]; [14]) was <4.00 log10 CFU/ml. The “Aerobic microflora CFU/ml, 24 hours” value (aerobic microflora [4]; [15]) was 7.10 log10 CFU/ml, the “Aerobic microflora CFU/ml, 48 hours” value (aerobic microflora [4]; [15]) was 7.54 log10 CFU/ml and the “Aerobic microflora CFU/ml, 24 hours” value (aerobic microflora [4]; [16]) was 7.50 log10 CFU/ml. For the same molecule, the “Aerobic microflora CFU/ml, 48 hours” value (aerobic microflora [4]; [16]) was 7.51 log10 CFU/ml, the “Aerobic microflora CFU/ml, 24 hours” value (aerobic microflora [4]; [17]) was <3 log10 CFU/ml and the “Aerobic microflora CFU/ml, 48 hours” value (aerobic microflora [4]; [17]) was <3 log10 CFU/ml. The “Aerobic microflora CFU/ml, 24 hours” value (aerobic microflora [4]; [18]) was <3 log10 CFU/ml, the “Aerobic microflora CFU/ml, 48 hours” value (aerobic microflora [4]; [18]) was 3.17 log10 CFU/ml and the “Aerobic microflora CFU/ml, 24 hours” value (aerobic microflora [4]; [19]) was <3 log10 CFU/ml. For the same molecule, the “Aerobic microflora CFU/ml, 48 hours” value (aerobic microflora [4]; [19]) was <3 log10 CFU/ml, the “Aerobic microflora CFU/ml, 24 hours” value (aerobic microflora [4]; [20]) was <3 log10 CFU/ml and the “Aerobic microflora CFU/ml, 48 hours” value (aerobic microflora [4]; [20]) was <3 log10 CFU/ml. The “Aerobic microflora CFU/ml, 24 hours” value (aerobic microflora [4]; [21]) was <3 log10 CFU/ml, the “Aerobic microflora CFU/ml, 48 hours” value (aerobic microflora [4]; [21]) was <3 log10 CFU/ml and the “Aerobic microflora CFU/ml, 24 hours” value (aerobic microflora [4]; [22]) was <3 log10 CFU/ml. For the same molecule, the “Aerobic microflora CFU/ml, 48 hours” value (aerobic microflora [4]; [22]) was <3 log10 CFU/ml, the “Inhibition of the prebiotic effect of soya hydrolysate, canine aerobic oral microflora (in words)” value (aerobic microflora [4]; [23]) was “inhibits the prebiotic effect” and the “Inhibitory effect, canine aerobic oral microflora (in words)” value (aerobic microflora [4]; [24]) was “particularly substantial”.
